# Measured values taken from patent US20240307426A1, “USE OF SGLT-2 INHIBITORS FOR THE PREVENTION AND/OR TREATMENT OF RENAL DISEASES IN NON-HUMAN MAMMALS” (BOEHRINGER INGELHEIM VETMEDICA GMBH, priority 2021, published 2024).
# System: cats with chronic kidney disease (CKD)
# Experiment: Exploratory clinical field trial in cats with CKD (Example 3)
# Assay type: in vivo, cat
# Design: key to IRIS Stage (based on serum creatinine level) / IRIS Stage (based on creatinine level) / IRIS Stage (based on the creatinine level): IRIS CKD stage assigned from serum creatinine (IRIS 2019)
# Settings: for Phosphorus: ref 0.8-2.2; for Serum creatinine: ref 0.9-2.3; for Potassium: ref 3.3-5.8; for UPC: ref <0.33
# Description: The clinical trial was conducted at three animal clinics. Overall, 9 cats with chronic kidney disease (CKD) were included in the study and treated once daily orally with 1 mg/kg bodyweight velagliflozin for up to 150 days (depending on the time of enrollment).
# Diagnosis of CKD was based on two measurements of serum creatinine concentration at least 2 weeks apart from each other (historical value and screening, and value at screening in fasted cats), as recommended by the International Renal Interest Society (IRIS 2019). In order to qualify for enrollment, serum creatinine levels needed to be ≥2.2 mg/dL, but <5.0 mg/dL.
# Disease staging throughout the study was performed based on serum creatinine levels in accordance with the IRIS CKD staging (IRIS 2019).
# All other cats were treated for >90 days had at least data for two time points under treatment available and were therefore evaluated. Progression of the disease, as well as IRIS staging in this study was based on the most reliable biomarker: serum creatinine.
# [1] = case 200-001, 1 mg/kg po once daily
# [2] = case 200-001, 1 mg/kg po once daily, whole study
# [3] = case 200-001, Visit 1 (Day 30), 1 mg/kg po once daily
# [4] = case 200-001, Visit 2 (Day 90), 1 mg/kg po once daily
# [5] = case 200-001, Visit 3 (Day 111), 1 mg/kg po once daily
# [6] = case 200-001, screening visit (before treatment)
# [7] = case 200-003 (IRIS stage 3), removed early on day 30
# [8] = case 200-004, 1 mg/kg po once daily, whole study
# [9] = case 200-004, Visit 1 (Day 30), 1 mg/kg po once daily
# [10] = case 200-004, Visit 2 (Day 90), 1 mg/kg po once daily
# [11] = case 200-004, Visit 3 (Day 143), 1 mg/kg po once daily
# [12] = case 200-004, screening visit (before treatment)
# [13] = case 200-005, 1 mg/kg po once daily
# [14] = case 200-005, 1 mg/kg po once daily, whole study
# [15] = case 200-005, Visit 1 (Day 30), 1 mg/kg po once daily
# [16] = case 200-005, Visit 2 (Day 90), 1 mg/kg po once daily
# [17] = case 200-005, Visit 3 (Day 128), 1 mg/kg po once daily
# [18] = case 200-005, screening visit (before treatment)
# [19] = case 200-006, 1 mg/kg po once daily
# [20] = case 200-006, 1 mg/kg po once daily, whole study
# [21] = case 200-006, Visit 1 (Day 30), 1 mg/kg po once daily
# [22] = case 200-006, Visit 2 (Day 90), 1 mg/kg po once daily
compound,measurement,setting,value
"N#Cc1ccc([C@@H]2O[C@H](CO)[C@@H](O)[C@H](O)[C@H]2O)cc1Cc1ccc(C2CC2)cc1 [velagliflozin, Velagliflozin]",decrease in serum creatinine within the observation period,"3 of the seven evaluated cats, 1 mg/kg po once daily",≥ 10%
same,renal parameters and clinical signs,"IRIS stage 2 and 3 CKD cats, 1 mg/kg orally once daily",stabilized or even improved
same,expected glucosuric effect,all cats except cat 200-004 (no data recorded),confirmed
same,Hematocrit,all cats under oral treatment with 1 mg/kg bodyweight,remained within the reference range
same,Systolic blood pressure,"all cats, during the course of the study",< 160 mmHg
same,serum phosphate levels,"all evaluated cases, except one measurement for case 200-001 on day 90",remained within the laboratories reference range throughout the study
same,Proteinuria (UPC),"all patients, 1 mg/kg po once daily",≤ 0.33
same,Serum potassium levels,"all treated cats, 1 mg/kg po once daily",stayed within the reference range
same,adverse events,[1],Two adverse events were reported for this patient: pectin responsive diarrhea for one day and pancreatitis
same,expected glucosuric effect,[1],confirmed
same,Quality of life according to the owner (course),[2],remained very good
same,Serum potassium levels (course),[2],decreased within the reference range
same,UPC (course),[2],improved from 0.4 to 0.2
same,appetite and drinking behavior (course),[2],remained normal
same,condition (clinical signs and biochemical parameters),[2],stabilization of the condition
same,course of BUN,[2],remained stable
same,course of serum creatinine,[2],remained stable with one single measurement on Day 90 being increased
same,total urine protein,[2],reduced
same,BUN,[3],38 mg/dL
same,IRIS Stage (based on the creatinine level),[3],2
same,Owner assessment - quality of life,[3],very good
same,Owner assessment of the appetite,[3],normal
same,Owner assessment of the drinking behavior,[3],normal
same,Systolic blood pressure,[3],126.7 mmHg
same,Phosphorus,[3],1.3 mmol/L
same,Serum creatinine,[3],2.6 mg/dL
same,Potassium,[3],4.6 mmol/L
same,Hematocrit,"case 200-001, Visit 1 (Day 30), 1 mg/kg po once daily, ref 28.2-52.7",38.5%
same,BUN,[4],47 mg/dL
same,IRIS Stage (based on the creatinine level),[4],3
same,Owner assessment - quality of life,[4],very good
same,Owner assessment of the appetite,[4],normal
same,Owner assessment of the drinking behavior,[4],normal
same,Systolic blood pressure,[4],122.7 mmHg
same,Phosphorus,[4],2.4 mmol/L
same,Serum creatinine,[4],3.2 mg/dL
same,Potassium,[4],4.3 mmol/L
same,Hematocrit,"case 200-001, Visit 2 (Day 90), 1 mg/kg po once daily, ref 28.2-52.7",34.6%
same,UPC,[4],0.2
same,BUN,[5],41 mg/dL
same,IRIS Stage (based on the creatinine level),[5],2
same,Owner assessment - quality of life,[5],very good
same,Owner assessment of the appetite,[5],normal
same,Owner assessment of the drinking behavior,[5],normal
same,Systolic blood pressure,[5],131.3 mmHg
same,Phosphorus,[5],1.6 mmol/L
same,Serum creatinine,[5],2.6 mg/dL
same,Potassium,[5],4.3 mmol/L
same,Hematocrit,"case 200-001, Visit 3 (Day 111), 1 mg/kg po once daily, ref 28.2-52.7",32.6%
same,BUN,[6],39 mg/dL
same,IRIS Stage (based on the creatinine level),[6],2
same,Owner assessment - quality of life,[6],very good
same,Owner assessment of the appetite,[6],normal
same,Owner assessment of the drinking behavior,[6],normal
same,Systolic blood pressure,[6],152.0 mmHg
same,Phosphorus,[6],1.4 mmol/L
same,Serum creatinine,[6],2.6 mg/dL
same,Potassium,[6],5.2 mmol/L
same,Hematocrit,"case 200-001, screening visit (before treatment), ref 28.2-52.7",37.4%
same,UPC,[6],0.4
same,appetite and drinking behavior,[7],improving to normal
same,laboratory parameters,[7],worsening of a single measurement of laboratory parameters
same,quality of life,[7],good quality of life
same,adverse events,"case 200-004, 1 mg/kg po once daily",No adverse event was reported
same,Quality of life according to the owner (course),[8],remained very good
same,appetite and drinking behavior (course),[8],remained normal
same,change of IRIS stage of the disease,[8],from 3 to 2
same,condition (biochemical parameters),[8],improvement of the condition
same,course of serum creatinine,[8],decreased by a clinically relevant amount
same,BUN,[9],42 mg/dL
same,IRIS Stage (based on serum creatinine level),[9],2
same,Owner assessment - quality of life,[9],very good
same,Owner assessment of the appetite,[9],normal
same,Owner assessment of the drinking behavior,[9],normal
same,Systolic blood pressure,[9],148.0 mmHg
same,Phosphorus,[9],1.3 mmol/L
same,Serum creatinine,[9],2.7 mg/dL
same,Potassium,[9],4.5 mmol/L
same,Hematocrit,"case 200-004, Visit 1 (Day 30), 1 mg/kg po once daily, ref 28.2-52.7",37.0%
same,BUN,[10],36 mg/dL
same,IRIS Stage (based on serum creatinine level),[10],2
same,Owner assessment - quality of life,[10],very good
same,Owner assessment of the appetite,[10],normal
same,Owner assessment of the drinking behavior,[10],normal
same,Systolic blood pressure,[10],129.3 mmHg
same,Phosphorus,[10],1.3 mmol/L
same,Serum creatinine,[10],2.5 mg/dL
same,Potassium,[10],4.9 mmol/L
same,Hematocrit,"case 200-004, Visit 2 (Day 90), 1 mg/kg po once daily, ref 28.2-52.7",32.9%
same,BUN,[11],38 mg/dL
same,IRIS Stage (based on serum creatinine level),[11],2
same,Owner assessment - quality of life,[11],very good
same,Owner assessment of the appetite,[11],normal
same,Owner assessment of the drinking behavior,[11],normal
same,Systolic blood pressure,[11],148.7 mmHg
same,Phosphorus,[11],1.2 mmol/L
same,Serum creatinine,[11],2.6 mg/dL
same,Potassium,[11],4.9 mmol/L
same,Hematocrit,"case 200-004, Visit 3 (Day 143), 1 mg/kg po once daily, ref 28.2-52.7",34.8%
same,BUN,[12],46 mg/dL
same,IRIS Stage (based on serum creatinine level),[12],3
same,Owner assessment - quality of life,[12],very good
same,Owner assessment of the appetite,[12],normal
same,Owner assessment of the drinking behavior,[12],normal
same,Systolic blood pressure,[12],130.7 mmHg
same,Phosphorus,[12],1.2 mmol/L
same,Serum creatinine,[12],2.9 mg/dL
same,Potassium,[12],4.9 mmol/L
same,Hematocrit,"case 200-004, screening visit (before treatment), ref 28.2-52.7",33.4%
same,UPC,[12],0.1
same,Quality of life according to the owner,[13],good
same,adverse events,[13],No adverse event was reported
same,expected glucosuric effect,[13],confirmed
same,Serum potassium levels (course),[14],remained stable
same,UPC ratio (remained at),[14],0.1
same,appetite and drinking behavior (course),[14],remained normal
same,condition (clinical signs and biochemical parameters),[14],stabilization of the condition
same,course of BUN,[14],remained stable
same,course of serum creatinine,[14],decreased
same,total urine protein,[14],reduced
same,BUN,[15],37 mg/dL
same,IRIS Stage (based on the creatinine level),[15],2
same,Owner assessment - quality of life,[15],very good
same,Owner assessment of the appetite,[15],normal
same,Owner assessment of the drinking behavior,[15],normal
same,Systolic blood pressure,[15],148.0 mmHg
same,Phosphorus,[15],1.0 mmol/L
same,Serum creatinine,[15],2.0 mg/dL
same,Potassium,[15],4.0 mmol/L
same,Hematocrit,"case 200-005, Visit 1 (Day 30), 1 mg/kg po once daily, ref 28.2-52.7",45.1%
same,BUN,[16],32 mg/dL
same,IRIS Stage (based on the creatinine level),[16],2
same,Owner assessment - quality of life,[16],good
same,Owner assessment of the appetite,[16],normal
same,Owner assessment of the drinking behavior,[16],normal
same,Systolic blood pressure,[16],130.0 mmHg
same,Phosphorus,[16],1.3 mmol/L
same,Serum creatinine,[16],1.9 mg/dL
same,Potassium,[16],3.9 mmol/L
same,Hematocrit,"case 200-005, Visit 2 (Day 90), 1 mg/kg po once daily, ref 28.2-52.7",39.2%
same,UPC,[16],0.1
same,BUN,[17],37 mg/dL
same,IRIS Stage (based on the creatinine level),[17],2
same,Owner assessment - quality of life,[17],good
same,Owner assessment of the appetite,[17],normal
same,Owner assessment of the drinking behavior,[17],normal
same,Systolic blood pressure,[17],123.3 mmHg
same,Phosphorus,[17],1.1 mmol/L
same,Serum creatinine,[17],1.9 mg/dL
same,Potassium,[17],4.0 mmol/L
same,Hematocrit,"case 200-005, Visit 3 (Day 128), 1 mg/kg po once daily, ref 28.2-52.7",40.4%
same,BUN,[18],37 mg/dL
same,IRIS Stage (based on the creatinine level),[18],2
same,Owner assessment - quality of life,[18],very good
same,Owner assessment of the appetite,[18],normal
same,Owner assessment of the drinking behavior,[18],normal
same,Systolic blood pressure,[18],139.3 mmHg
same,Serum creatinine,[18],2.2 mg/dL
same,Potassium,[18],4.9 mmol/L
same,Hematocrit,"case 200-005, screening visit (before treatment), ref 28.2-52.7",42.3%
same,UPC,[18],0.1
same,adverse events,[19],"Three adverse events were reported: diarrhoea, vomitus as well as cystitis"
same,expected glucosuric effect,[19],confirmed
same,Quality of life according to the owner (course),[20],remained good
same,Serum creatinine and BUN (course),[20],remained stable
same,Serum potassium levels (course),[20],remained within the reference range
same,Total urine protein and UPC,[20],remained within the reference range
same,appetite (course),[20],improved to normal
same,condition (clinical signs and biochemical parameters),[20],stable condition
same,drinking behavior (course),"case 200-006, 1 mg/kg po once daily, whole study, worsening potentially due to cystitis",improved to normal but worsened again to excessive
same,BUN,[21],41 mg/dL
same,IRIS Stage (based on the creatinine level),[21],2
same,Owner assessment - quality of life,[21],good
same,Owner assessment of the appetite,[21],normal
same,Owner assessment of the drinking behavior,[21],normal
same,Systolic blood pressure,[21],139.3 mmHg
same,Phosphorus,[21],1.9 mmol/L
same,Serum creatinine,[21],2.7 mg/dL
same,Potassium,[21],3.9 mmol/L
same,Hematocrit,"case 200-006, Visit 1 (Day 30), 1 mg/kg po once daily, ref 28.2-52.7",38.1%
same,BUN,[22],30 mg/dL
same,IRIS Stage (based on the creatinine level),[22],2
same,Owner assessment - quality of life,[22],good
same,Owner assessment of the appetite,[22],normal
same,Owner assessment of the drinking behavior,[22],excessive
